Assay results as given in US20260116910A1, “POLYCYCLIC COMPOUNDS AND METHODS THEREOF” (HEPAITECH (BEIJING) BIOPHARMA TECHNOLOGY CO., LTD., priority 2021, published 2026).

Molecular target: T1, human FXR (NR1H4) (Homo sapiens, UniProt Q96RI1)
T1 sequence (Q96RI1 1-476 isoform Q96RI1-1): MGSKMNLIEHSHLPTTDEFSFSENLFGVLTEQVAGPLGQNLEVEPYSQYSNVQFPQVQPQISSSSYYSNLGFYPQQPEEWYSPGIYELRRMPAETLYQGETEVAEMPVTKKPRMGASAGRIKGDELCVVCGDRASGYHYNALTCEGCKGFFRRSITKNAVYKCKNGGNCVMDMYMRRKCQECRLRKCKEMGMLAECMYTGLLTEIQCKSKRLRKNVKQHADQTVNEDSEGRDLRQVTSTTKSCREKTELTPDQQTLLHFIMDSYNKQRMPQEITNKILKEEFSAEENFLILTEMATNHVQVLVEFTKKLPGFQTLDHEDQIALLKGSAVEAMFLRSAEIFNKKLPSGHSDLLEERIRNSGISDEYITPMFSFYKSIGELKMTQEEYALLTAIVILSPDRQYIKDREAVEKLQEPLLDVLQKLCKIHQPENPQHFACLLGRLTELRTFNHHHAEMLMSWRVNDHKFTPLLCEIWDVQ
Assay: Human FXR (NR1H4) agonist assessment, FXRE-NanoLuc reporter in HEK293T cells
Format: cell-based
Conditions: FXR activation, HEK293T FXRE-NanoLuc reporter, 24 hr; for EC50: read-out: EC50
Protocol: As those skilled in the art appreciate, various technologies are available for assessment of FXR activation in accordance with the present disclosure. […] Human FXR (NR1H4) agonist assessment (see, e.g., Yu et al. eLife 2019; 8: e48431): HEK293T cells stably expressing human FXR and containing FXR response element (FXRE)-NanoLuc reporter were cultured in DMEM medium supplemented with 10% FBS and 1% PS, at 37° C. in a humidified atmosphere with 5% CO2. Cells were detached by centrifuging (1000 rpm, 3 min). The pellet was re-suspended in medium, and cell density was adjusted to about 1×10^6 cells/mL. 100 μL suspension was seeded to each well of a white-walled, clear-bottom 96-well microplates (cell plate). Cells in microplates were cultured overnight.
In the following day, cells were grown to higher than 95% density in each well. Culture medium was replaced, and compounds were added to the wells. 0.01% DMSO (v/v) served as negative control. Plates were incubated at 37° C. in 5% CO2 for 24 hr.
In the following day, a 10 μL aliquot of cell culture medium was removed from each well and combined with 40 μL culture medium plus […] assay buffer (containing 20 mM of the luciferase substrate coelenterazine). After 5 min incubation, luminescence was measured using an EnVision plate reader (PerkinElmer).
In some embodiments, gradient diluted solutions of several concentrations were used to treat cells and corresponding responses were used to fit sigmoid function and to derive EC50 in Origin.

SMILES | Efficacy (maximum measured induction of NanoLuc, normalized to CDCA set as 100%) | EC50
CC[C@H]1[C@@H](O)[C@@H]2[C@H](CC[C@]3(C)[C@@H]([C@H](C)CCNC(=N)N)CC[C@@H]23)[C@@]2(C)CCCC[C@@H]12 [17-1] | A (efficacy >400%) | < 1000 nM
CC[C@H]1[C@@H](O)[C@@H]2[C@H](CC[C@]3(C)[C@@H]([C@H](C)CCc4nnc(NS(=O)(=O)c5ccc6c(c5)OCO6)[nH]4)CC[C@@H]23)[C@@]2(C)CCCC[C@@H]12 [15-3] | C (100%<efficacy <=300%) | 1000 to 10000 nM
C[C@H](CNC(=O)NS(=O)(=O)c1ccc(C(C)(C)CF)cc1)[C@H]1CC[C@H]2[C@@H]3CC[C@@H]4CCCC[C@]4(C)[C@H]3CC[C@]12C [23-1] | B (300%<efficacy <=400%) | 1000 to 10000 nM
C[C@H](CCCCNC(=O)NS(=O)(=O)c1ccc(C(C)(C)CF)cc1)[C@H]1CC[C@H]2[C@@H]3CC[C@@H]4CCCC[C@]4(C)[C@H]3CC[C@]12C [24-1] | B (300%<efficacy <=400%) | 1000 to 10000 nM
CC[C@H]1[C@@H](O)[C@@H]2[C@H](CC[C@]3(C)[C@@H]([C@H](C)CCNC(=O)NS(=O)(=O)c4ccc(C(F)(F)F)cc4)CC[C@@H]23)[C@@]2(C)CCCC[C@@H]12 [5-19] | C (100%<efficacy <=300%) | < 1000 nM
